According to ChEMBL document CHEMBL3739399, “Discovery of Indazole Derivatives as a Novel Class of Bacterial Gyrase B Inhibitors” (ACS Med Chem Lett, 2015):
Converted amounts (≈) assume the structure as drawn.

What was measured:
Staphylococcus aureus [1] = assay: Antibacterial activity against methicillin and ciprofloxacin-resistant Staphylococcus aureus 1721 for 18 to 20 hrs by broth microdilution method; type: functional
Staphylococcus aureus [2] = assay: Antibacterial activity against methicillin-sensitive Staphylococcus aureus 42 for 18 to 20 hrs by broth microdilution method; type: functional
DNA gyrase subunit B = DNA gyrase subunit B (Staphylococcus aureus, UniProt P0A0K8); assay: Inhibition of Staphylococcus aureus Gyrase B ATPase activity by fluorescence analysis
Enterococcus faecium = assay: Antibacterial activity against Enterococcus faecium for 18 to 20 hrs by broth microdilution method; type: functional
Staphylococcus aureus [3] = assay: Antibacterial activity against methicillin-resistant Staphylococcus aureus 1118 for 18 to 20 hrs by broth microdilution method; type: functional
Streptococcus pneumoniae [4] = assay: Antibacterial activity against Streptococcus pneumoniae for 18 to 24 hrs by broth microdilution method; type: functional
Enterococcus faecalis = assay: Antibacterial activity against Enterococcus faecalis for 18 to 20 hrs by broth microdilution method; type: functional
[5] = Inhibition of Staphylococcus aureus topoisomerase 4 by fluorescence analysis
Streptococcus pneumoniae [6] = assay: Antibacterial activity against Streptococcus pneumoniae 402 infected in sc dosed mouse assessed as reduction in 3 log CFU in lung compound administered as BID for 1 day measured 24 hrs after last dose; type: functional
Streptococcus pneumoniae [7] = assay: Antibacterial activity against Streptococcus pneumoniae 402 infected in sc dosed mouse assessed as reduction in 2 log CFU in lung compound administered as BID for 1 day measured 24 hrs after last dose; type: functional
[8] = Clearance in mouse at 2 mg/kg, iv by LC-MS/MS analysis; type: ADME, organism-based; conditions: in vivo
[9] = Half-life in mouse at 2 mg/kg, iv by LC-MS/MS analysis; type: ADME, organism-based; conditions: in vivo
Mus musculus = assay: Dose-normalized AUC in mouse at 2 mg/kg, iv by LC-MS/MS analysis; type: ADME, organism-based; conditions: in vivo
[10] = Volume of distribution at steady state in mouse at 2 mg/kg, iv by LC-MS/MS analysis; type: ADME, organism-based; conditions: in vivo, read-out: Vdss

DNA gyrase subunit B, sequence (P0A0K8 whole entry): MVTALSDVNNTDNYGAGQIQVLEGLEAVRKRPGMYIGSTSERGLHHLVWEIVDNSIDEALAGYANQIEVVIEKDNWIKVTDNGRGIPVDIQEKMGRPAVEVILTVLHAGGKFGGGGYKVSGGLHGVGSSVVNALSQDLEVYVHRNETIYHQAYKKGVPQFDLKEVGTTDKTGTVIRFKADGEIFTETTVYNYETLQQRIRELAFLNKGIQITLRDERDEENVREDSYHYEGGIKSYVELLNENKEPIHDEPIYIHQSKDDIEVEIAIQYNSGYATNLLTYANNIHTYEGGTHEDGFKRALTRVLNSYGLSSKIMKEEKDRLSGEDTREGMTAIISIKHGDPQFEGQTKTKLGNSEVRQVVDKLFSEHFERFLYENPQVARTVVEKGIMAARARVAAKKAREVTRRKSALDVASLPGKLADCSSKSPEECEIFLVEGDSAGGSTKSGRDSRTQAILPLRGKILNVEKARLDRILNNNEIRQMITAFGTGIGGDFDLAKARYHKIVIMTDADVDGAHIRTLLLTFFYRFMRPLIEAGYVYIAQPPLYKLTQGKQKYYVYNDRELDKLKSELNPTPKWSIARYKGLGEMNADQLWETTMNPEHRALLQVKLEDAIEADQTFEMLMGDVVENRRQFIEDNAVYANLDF

Structure (SMILES)	MIC (Staphylococcus aureus [1]) [µg/mL]	MIC (Staphylococcus aureus [2]) [µg/mL]	IC50 (DNA gyrase subunit B) [nM]	MIC (Enterococcus faecium) [µg/mL]	MIC (Staphylococcus aureus [3]) [µg/mL]	MIC (Streptococcus pneumoniae [4]) [µg/mL]	MIC (Enterococcus faecalis) [µg/mL]	IC50 [5] [nM]	ED (Streptococcus pneumoniae [6]) [mg/kg]	ED (Streptococcus pneumoniae [7]) [mg/kg]	clearance [8] [mL/min/kg]	half-life [9] [h]	AUC/dose (Mus musculus) [µg·h/mL/mg/kg]	Vd [10] [L/kg]
CCCOc1nccc2c(-c3cnc(-c4cnc(C(=O)O)cc4C)s3)n[nH]c12	8 (≈ 20.2 µM)	8 (≈ 20.2 µM)	52	8 (≈ 20.2 µM)	8 (≈ 20.2 µM)	0.125 (≈ 0.316 µM)	4 (≈ 10.1 µM)	–	–	–	–	–	–	–
CCCOc1nccc2c(-c3cnc(-c4ccc(CO)nc4)s3)n[nH]c12	0.125 (≈ 0.34 µM)	0.125 (≈ 0.34 µM)	< 8	1 (≈ 2.72 µM)	0.25 (≈ 0.68 µM)	0.25 (≈ 0.68 µM)	0.25 (≈ 0.68 µM)	–	–	–	–	–	–	–
CCCc1cccc2c(-c3cnc(-c4ccc(C(=O)O)cn4)s3)n[nH]c12	> 8	8 (≈ 22 µM)	49	4 (≈ 11 µM)	> 8	8 (≈ 22 µM)	8 (≈ 22 µM)	9900	–	–	–	–	–	–
CCCc1cccc2c(-c3cnc(-c4cnc(C(=O)O)c(O)c4)s3)n[nH]c12	0.125 (≈ 0.329 µM)	0.125 (≈ 0.329 µM)	11	0.125 (≈ 0.329 µM)	0.06 (≈ 0.158 µM)	0.5 (≈ 1.31 µM)	0.125 (≈ 0.329 µM)	60	–	–	–	–	–	–
COc1c(N2C[C@@H]3CCCN[C@@H]3C2)c(F)cc2c(=O)c(C(=O)O)cn(C3CC3)c12 [MOXIFLOXACIN]	–	–	–	–	–	0.06 (≈ 0.149 µM)	–	–	50.8	28.6	–	–	–	–
CCCc1cccc2c(-c3cnc(-c4ccc(CC(=O)O)nc4)s3)n[nH]c12	0.25 (≈ 0.661 µM)	0.25 (≈ 0.661 µM)	25	4 (≈ 10.6 µM)	0.25 (≈ 0.661 µM)	0.5 (≈ 1.32 µM)	0.5 (≈ 1.32 µM)	434	–	–	–	–	–	–
CCCc1cccc2c(-c3cnc(-c4ccc(CO)nc4)s3)n[nH]c12	0.06 (≈ 0.171 µM)	0.06 (≈ 0.171 µM)	15	> 8	0.06 (≈ 0.171 µM)	8 (≈ 22.8 µM)	> 8	> 4000	–	–	–	–	–	–
CCCc1cccc2c(-c3cnc(-c4ccc(C(=O)O)c(F)c4)s3)n[nH]c12	0.125 (≈ 0.328 µM)	0.125 (≈ 0.328 µM)	< 8	0.06 (≈ 0.157 µM)	0.125 (≈ 0.328 µM)	0.25 (≈ 0.655 µM)	0.06 (≈ 0.157 µM)	1300	97.6	63	42	2	0.397	1.7
CCCc1cccc2c(-c3cnc(-c4cnc(C(=O)O)cc4C)s3)n[nH]c12	0.03 (≈ 0.0793 µM)	0.02 (≈ 0.0528 µM)	12	0.013 (≈ 0.0344 µM)	0.02 (≈ 0.0528 µM)	0.125 (≈ 0.33 µM)	0.06 (≈ 0.159 µM)	60	–	–	–	–	–	–
CCCc1cccc2c(-c3cnc(-c4ccc(C(=O)O)c(=O)[nH]4)s3)n[nH]c12	> 8	> 8	168	> 8	> 8	> 8	> 8	–	–	–	–	–	–	–
CCCc1cccc2c(-c3cnc(-c4cnc(C(=O)O)c(F)c4)s3)n[nH]c12	0.25 (≈ 0.654 µM)	0.125 (≈ 0.327 µM)	< 8	0.25 (≈ 0.654 µM)	0.125 (≈ 0.327 µM)	0.25 (≈ 0.654 µM)	0.25 (≈ 0.654 µM)	24	–	–	–	–	–	–
CCCc1c(OC)ccc2c(-c3cnc(-c4ccc(C(=O)O)c(F)c4)s3)n[nH]c12	0.125 (≈ 0.304 µM)	0.06 (≈ 0.146 µM)	15	0.03 (≈ 0.0729 µM)	0.125 (≈ 0.304 µM)	0.125 (≈ 0.304 µM)	0.03 (≈ 0.0729 µM)	–	103.7	60.6	19	0.31	0.893	0.32
CCCc1c(O)ccc2c(-c3cnc(-c4cnc(C(=O)O)cc4C)s3)n[nH]c12	0.125 (≈ 0.317 µM)	0.125 (≈ 0.317 µM)	8	0.25 (≈ 0.634 µM)	0.125 (≈ 0.317 µM)	0.06 (≈ 0.152 µM)	0.06 (≈ 0.152 µM)	–	–	–	–	–	–	–
CCCc1cccc2c(-c3cnc(-c4ccc(C(=O)OC)nc4)s3)n[nH]c12	2 (≈ 5.28 µM)	0.5 (≈ 1.32 µM)	29	> 8	1 (≈ 2.64 µM)	0.125 (≈ 0.33 µM)	> 8	> 10000	–	–	–	–	–	–
C=CCc1cccc2c(-c3cnc(-c4ccc(C(=O)O)nc4)s3)n[nH]c12	0.06 (≈ 0.166 µM)	0.03 (≈ 0.0828 µM)	9	0.125 (≈ 0.345 µM)	0.03 (≈ 0.0828 µM)	0.25 (≈ 0.69 µM)	0.125 (≈ 0.345 µM)	–	–	–	–	–	–	–
CCCc1cccc2c(-c3cncs3)n[nH]c12	> 32	> 32	6500	> 32	> 32	> 32	> 32	–	–	–	–	–	–	–
